Among the data in the METLIN SMRT retention time set (Domingo-Almenara et al. 2019) are RP-LC retention time values, retold here.

SMILES strings stand for the structures.

The nature of the data set: gradient 5% acetonitrile 3 min, to 50% in 2 min, to 85% in 15 min, held 3 min, 100 µL/min. The settings on record: column: Zorbax Extend-C18 2.1 x 50 mm; eluents: water / acetonitrile, 0.1% formic acid. The procedure, abridged:
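Retention times of pure standards were taken from adduct peaks that were selected by computer and manually inspected. Over 3 months, mixtures of ~100 molecules were run by HPLC–quadrupole time-of-flight mass spectrometry in positive and negative ionization mode. The Zorbax Extend-C18 column (2.1 × 50 mm, 1.8 μm) ran at 100 μL/min in water and acetonitrile, each containing 0.1% formic acid, with 40 μL dead volume and 900 μL dwell volume.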
With `O=C(CNC(=O)c1ccc(=O)[nH]c1)NCCOc1ccc(F)cc1`, the RP-LC retention time is 583 s.

Consider `Cc1ccc(-c2nc(NC(=O)Cc3csc(C)n3)sc2C)cc1`, for which the RP-LC retention time came to 944 s.

On to `CC(C)c1c(C2CCN(C(=O)c3cc(F)ccc3F)CC2)noc1N`, for which the RP-LC retention time was 774 s. With `Cc1ccc(CSc2nccc3c2ccn3CC(=O)NCc2ccco2)cc1` the figure was 729 s; with `O=C(NCCCN1CCCCC1)c1ccc2c(c1)NC(=O)C1CCCCN21` (configuration not stated), 600 s; with `Cc1ccc(S(=O)(=O)c2cnc(N3CCN(C4CCCCC4)CC3)nc2N)cc1C`, 718 s. Take `Cc1cccc2nnc(N3CCCN(C(=O)c4ccccc4Cl)CC3)n12`: the RP-LC retention time came to 600 s.

`COc1cccc2cc(C(=O)NCC3CCN(S(=O)(=O)C4CC4)CC3)oc12` yielded an RP-LC retention time of 754 s. Regarding `COc1ccccc1NC(=O)CN1CCc2[nH]c3c(OC)ccc(Cl)c3c(=O)c2C1`, the RP-LC retention time was 638 s. Next, `Cc1ccc(-c2nnc(-c3nc(N4CCOCC4)c4ccccc4n3)o2)cc1`: 945 s; `COc1cccc(N2CCN(S(=O)(=O)c3cc4[nH]c(=O)[nH]c4cc3C)CC2)c1`: 758 s; `COc1ccc(C(=O)Nc2cnn(C)c(=O)c2N2CCOCC2)cc1OC`: 684 s. With `CCCc1cc(N2CCN(C(=O)COc3ccccc3)CC2)nc2nnc(C)n12` the figure was 634 s; with `O=C(Cc1ccsc1)NCCC1CCN(C(=O)Nc2cc(F)cc(F)c2)CC1`, 853 s; with `Cc1ccc(C)c(NS(=O)(=O)c2cc(-c3[nH]ncc3C(=O)N3CCOCC3)oc2C)c1`, 701 s. With `CCn1ccc2oc(C)c(C(=O)NCc3cccc(F)c3)c2c1=O` the figure was 947 s; with `CNC(=O)N1CCCC(c2cccc(C(=O)NCc3ccccc3C(F)(F)F)c2)C1` (configuration not stated), 838 s. `Cc1cccc(-n2cc(C(=O)OCc3ccncc3)c3ccccc3c2=O)c1` returned an RP-LC retention time of 743 s. Turning to `NC(=O)C1CCN(C(=O)CSc2nc3ccccc3s2)CC1`, the RP-LC retention time is 627 s. In turn, `CN(C)S(=O)(=O)c1ccc(C(=O)Nc2sc(-c3ccccc3)cc2C(N)=O)cc1` showed an RP-LC retention time of 925 s. Next, `O=C(Cn1cnc2ccccc2c1=O)NCCn1nc(-c2cccs2)ccc1=O`: 622 s; `CCc1ccccc1S(=O)(=O)N(C)CC1CCOC1` (configuration not stated): 850 s. With `O=C(NCc1ccco1)C1CCN(c2cncnc2N2CCOCC2)CC1` the figure was 578 s. With `CCC(C)NC(=O)C1(c2ccc(NS(=O)(=O)CC)cc2)CCCCC1` (configuration not stated) the figure was 887 s. Compound `Cc1nc(-n2nc(C)c(Cl)c2C)sc1C(=O)N1CCCCC1` came in with an RP-LC retention time of 1200 s.

Take `CN(CCNC(=O)C1CCCN(S(=O)(=O)c2ccc3c(ccn3C)c2)C1)Cc1ccccc1` (configuration not stated): the RP-LC retention time came to 704 s. `CCc1noc(NC(C)=O)c1-c1ccc(C)c(S(=O)(=O)N2CCN(C(=O)c3ccco3)CC2)c1` showed an RP-LC retention time of 758 s.

In the case of `CS(=O)(=O)N1CCCc2ccc(NC(=O)Nc3ccc(Cl)c(Cl)c3)cc21`, the RP-LC retention time was 971 s. Take `COc1ccc(CNC(=O)c2[nH]c3cc(C)sc3c2CN(C)C)cc1OC`: the RP-LC retention time is 641 s. Consider `CC(C)C(=O)Nc1nnc2n1CCS2`, for which the RP-LC retention time came to 519 s.

As to `O=C(c1cc(C2CC2)[nH]n1)N1CCC(Cc2ccccc2)CC1`, the RP-LC retention time was determined as 902 s. Next, `Cc1nn2c(S(=O)(=O)N3CCOCC3)c(C)nc2s1`: 656 s; `O=C(CCc1nc2ccccc2n(CC(=O)NC2CCCCC2)c1=O)NC1CCCCC1`: 844 s; `O=C(Nc1cccc(Br)c1)C1CCCN(c2ncc(-c3cccc(F)c3)cn2)C1` (configuration not stated): 1260 s. Next, `C=CCn1c(C)c(CC(=O)NCC(C)C)c(=O)n2nc(-c3ccccc3)nc12`: 779 s. Next, `Cc1cc(C(=O)Nc2cccn3c(C4CCC4)nnc23)no1`: 724 s. Consider `COC(=O)CC1=CC(SCC(=O)N2CCN(c3ccccc3)CC2)=Nc2ccccc2N1`, for which the RP-LC retention time was 1080 s. With `CCn1c(CCc2ccccc2NS(=O)(=O)c2ccc3c(c2)OCCO3)nc2ccccc21` the figure was 717 s; with `Cc1cccc(CN2CCCn3nc(C(=O)NCc4cccs4)cc3C2=O)c1`, 874 s; with `CCOc1cccc(CNC(=O)c2c(O)c3cccnc3[nH]c2=O)c1`, 969 s. With `CCc1nnc(-c2cccn2CC(=O)NCc2ccc3c(c2)OCO3)o1` the figure was 743 s; with `Cc1cc(C(=O)NC2CCCC2)c2cccc(Cl)c2n1`, 840 s.

For `Cc1ccc(NC(=O)CN2C(=O)NC(c3ccccc3Cl)C3=C2COC3=O)cc1C` (configuration not stated), the RP-LC retention time stood at 819 s. In the case of `CCn1c(C(=O)N2CCN(c3ccc(OC)cc3)CC2)cc2sccc21`, the RP-LC retention time is 973 s.

In turn, `Cc1cc(=O)n(CC(=O)N(C)C2CCCCC2)c(N2CCOCC2)n1` registered an RP-LC retention time of 656 s. With `CC(C)(C)n1nnnc1C1CC2(CCOCC2)C(=O)N1Cc1ccc(F)cc1` (configuration not stated) the figure was 798 s; with `N#Cc1nnn(-c2ccc(Cl)cc2)c1N`, 816 s; with `O=C(CN1C(=O)NC2(CCCCC2)C1=O)Nc1cccc(Cl)c1`, 815 s. With `Cc1nn(-c2ccc(C(=O)NCc3cccs3)cc2)c2c1C(=O)CCC2` the figure was 749 s; with `CCOCC(=O)N1C[C@@H]2CCCN3CCC[C@@H]([C@H]23)[C@H]1CCCC(=O)N1CCOCC1`, 563 s; with `O=C(NCc1ccc(F)cc1F)c1nnn2c1COC(c1ccc(Cl)cc1)C2` (configuration not stated), 1040 s. With `Cc1nnc(NC(=O)CSc2nnc(NC(=O)Nc3cccs3)s2)s1` the figure was 634 s.

`COc1ccc(CNc2ncc(C(=O)O)c(C(C)C)n2)cc1OC` had an RP-LC retention time of 863 s. `O=C1NCCOCCN(C(=O)COc2ccccc2)[C@H]2CCC[C@@H]12`: the RP-LC retention time turned out to be 683 s. Next, `Cc1cccc(C)c1NC(=O)N1CCC(OC2CCN(S(C)(=O)=O)CC2)CC1`: 718 s. With `COc1cccc(-c2noc(C3CCCN3C(=O)NC(C)C)n2)c1` (configuration not stated) the figure was 802 s; with `CCOc1ccc(NC(=O)N2CCCN(c3ncccc3-c3nc(C4CC4)no3)CC2)cc1`, 944 s.

`CCOc1ccc(Br)cc1S(=O)(=O)N1CCN(c2nc(C)cc(N(C)C)n2)CC1` had an RP-LC retention time of 765 s.

`CC1Oc2ccc(-c3csc(NC(=O)c4cccc(Br)c4)n3)cc2NC1=O` (configuration not stated): the RP-LC retention time was 995 s. Next, `CCCNC(=O)c1cc(-c2ccc(Cl)cc2)cn1C`: 957 s. As for `Cc1oc2c(c1C(=O)Nc1ccc(F)c(F)c1)C1=NC(C)(C)CN1C=N2`, the RP-LC retention time amounted to 655 s. With `Cc1ccc2c(=O)c(C(=O)c3ccc(Cl)cc3)cn(CC(=O)NCC3CCCO3)c2n1` (configuration not stated) the figure was 745 s. Next, `Cc1ccc(Cn2c(CN3CCC(C(=O)NC4CC4)CC3)cc3ccccc32)cc1`: 716 s. With `COc1ccc(-c2nc(-c3cccc(-c4ccn[nH]4)c3)no2)c(C)c1` the figure was 1060 s; with `CCCNC(=O)C1CCCN(c2ccc(SCC(=O)Nc3cccc(Br)c3)nn2)C1` (configuration not stated), 730 s; with `CCOC(=O)c1c(C)[nH]c(CN(Cc2ccc3c(c2)OCO3)C(=O)c2ccco2)c1C`, 991 s. With `CCn1c(C(=O)NCc2ccc(Cl)cc2)cc2sccc21`, the RP-LC retention time is 1210 s. Take `CN(C)c1cccc(-c2nc(-c3ccc(CNC(=O)C4CC4)s3)no2)c1`: the RP-LC retention time is 680 s. Next, `CCCn1nnc(NCc2ccc(-c3cccc(Cl)c3)o2)n1`: 1090 s; `C=CCn1nnc(NCc2ccc(-c3ccc(Cl)cc3Cl)o2)n1`: 1160 s. With `CCS(=O)(=O)N1CC(=O)N(c2cc(C)cc(C)c2)C(C)(C(=O)NC2CCCCCC2)C1` (configuration not stated) the figure was 935 s; with `O=C1[C@H]2CNC[C@H]2C(=O)N1CCc1ccccc1`, 604 s. With `CCOc1ccc(C(=O)N2CCN(c3cc(-c4cccs4)[nH]n3)CC2)cc1` the figure was 812 s. For `O=C(O[C@@H]1CN2CCC1CC2)N1CCc2ccccc2C1c1ccccc1` (some centres not stated), the RP-LC retention time was found to be 757 s.

Take `O=C(NCCc1c[nH]c2ccccc12)c1ccc(N2C(=O)CCS2(=O)=O)cc1`: the RP-LC retention time is 728 s. With `Cc1cccc(NC(=O)Cn2nc(N3CCCC(C)C3)c3ccccc3c2=O)c1` (configuration not stated) the figure was 1090 s.

`CCn1cc(-c2ccccc2)cc1C(=O)NC(C)c1ccccn1` (configuration not stated) displayed an RP-LC retention time of 749 s.

For `O=C(N1CCCC1c1noc(COCc2ccccc2)n1)C1(c2ccccc2)CC1` (configuration not stated), the RP-LC retention time was 1040 s.

In turn, `CCNC(=O)c1nc(N(C)C)c2c(C)scc2n1` showed an RP-LC retention time of 593 s. Compound `CCN(CC)CCCC(C)Nc1ccnc(/C=C/c2ccc(Cl)cc2)c1` (configuration not stated) returned an RP-LC retention time of 602 s.

In turn, `O=C(Nc1ccccc1Cl)N(CCc1cccs1)C1CC1` registered an RP-LC retention time of 1120 s.

`O=S(=O)(Cc1ccccc1)N1CCC(c2noc(COCC3CC3)n2)CC1` came in with an RP-LC retention time of 941 s.
